In patent US5691307A, “O^6 -substituted guanine compositions and methods for depleting O^6” (The United States of America as represented by the …, priority 1994, dated 1997):
Entries after “also recorded” stand apart in the source; their conditions may differ. Values belong to the molecule of their own block, whether it stands above or below them.

Tests used:
[1] = background; agents under development; cited from earlier work
prostate tumors = details: cited from earlier work; for regression in tumor growth: rats bearing prostate tumors, O^6-benzylguanine one hour prior to BCNU, or BCNU alone at equal dose
[2] = Conversion to O^6-benzylguanine / stability in vitro and in cell cultures; type: in vitro ADME
[3] = Stability in alkaline solution (UV at pH 13); type: physicochemical; details: pH 13, UV measurement
Protocol: The reaction mixture was stirred at 0° C. for 30 min at which time the ice bath was removed and the reaction was allowed to proceed overnight at room temperature. At this point, a water-ice mixture (~5 ml) was added to the flask with vigorous stirring for 5 minutes.

[4] = target: T1, alkyltransferase (AGT), HT29 cell-free extract (Homo sapiens, UniProt P16455); experiment: biochemical; details: HT29 cell-free extract, 30 min incubation; 50% inactivation (Table 2); read-out: ED50 In cell-free extract
T1 sequence (P16455 1-207): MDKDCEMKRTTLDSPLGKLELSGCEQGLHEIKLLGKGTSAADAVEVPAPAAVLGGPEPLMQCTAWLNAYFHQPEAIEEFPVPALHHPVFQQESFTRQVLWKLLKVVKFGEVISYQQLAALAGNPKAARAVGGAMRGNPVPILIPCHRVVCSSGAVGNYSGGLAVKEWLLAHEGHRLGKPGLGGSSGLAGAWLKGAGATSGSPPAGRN

[5] = target: T2, alkyltransferase (AGT), HT29 cells (Homo sapiens, UniProt P16455); experiment: AGT depletion/inactivation in intact HT29 cells; type: cell-based; details: HT29 cells, 4 h incubation; 50% inactivation (Table 2); read-out: ED50 In cells
T2 construct: human colon tumor cells HT29 and intact HT29 cells; endogenous in cells; host or cells: HT29 human colon tumor cells, intact
T2 sequence (P16455 1-207): T1 sequence (P16455 1-207)
Protocol: After four hours, cells were harvested and frozen at -80° C. until analysis for AGT.

AGT = details: cited from earlier work; for AGT depletion (shown previously): literature
tumor cells = details: cited from earlier work
[6] = tested on: AGT activity of D341MED xenograft tumors; details: i.p., sc D341MED; cited from earlier work
[7] = tested on: intracranial (ic) xenografts of D341MED; details: athymic mice; cited from earlier work
[8] = tested on: D245MG, a human glioma xenograft; details: sc D245MG, cited from earlier work
[9] = tested on: human colon cancer cells (HT29); details: HT29, in vitro; cited from earlier work
[10] = tested on: malignant glioma cells (SF767); details: SF767, in vitro; cited from earlier work
melanoma cells (M19-mel) = details: in vitro; cited from earlier work
[11] = athymic mice; cited from earlier work
[12] = tested on: D341MED, a human medulloblastoma xenograft; details: sc D341MED, cited from earlier work
human tumor xenografts = details: nude mice bearing human tumor xenografts; cited from earlier work
pancreatic beta cells = details: cited from earlier work
pancreatic tumors = details: background; cited from earlier work
[13] = tested on: malignant melanomas, brain tumors and mycosis fungoides; details: background; cited from earlier work
[14] = tested on: active melanin producing cells such as melanoma cells; details: cited from earlier work

Compound: O=NN(CCCl)C(=O)NCCO [1-(2-chloroethyl)-3-(2-hydroxyethyl)-1-nitrosourea]
- side effects [1]: fewer side effects

Compound: O=NN(CCCl)C(=O)NCCCl [BCNU, 1,3-bis(2-chloroethyl)-1-nitrosourea]
- regression in tumor growth (prostate tumors): not observed

Compound: CS(=O)(=O)CS(=O)(=O)OCCCl [Clomesone, 2-chloroethylmethylsulfonylmethanesulfonate]
- side effects [1]: fewer side effects

- stability in vitro ([2]; in vitro): stable in vitro
Compound: CC(C)(C)C(=O)OCn1cnc2c(OCc3ccccc3)nc(N)nc21 [Example 7, 2-Amino-6-benzyloxy-9-pivaloyloxymethylpurine]
- conversion by esterases in cell cultures ([2]; cell cultures): Converted to O^6benzylguanine by esterases in cell cultures

- decomposition at pH 13 [3]: decomposes to O^6 -benzylguanine
Compound: CC(=O)n1cnc2c(OCc3ccccc3)nc(N)nc21 [Example 13, 9-Acetyl-O^6-benzylguanine]
- conversion by hydrolysis ([2]; in vitro and in cultures): Converted to O^6benzylguanine by hydrolysis

Compound: CCOP(=O)(OCC)C(C)NC(=O)N(CCCl)N=O (centres unmarked) [Fotemustine, 1-[N-(2-chloroethyl)-N-nitrosoureido]ethylphosphonic acid diethyl ester]
- side effects [1]: fewer side effects

Compound: Cc1ccc(COc2nc(N)nc3nc[nH]c23)cc1 [O^6 -(p-methylbenzyl)guanine]
- IC50 [4]: 0.2 µM
- IC50 [5]: 0.08 µM
- potency as AGT depleter (AGT): more potent
- AGT depletion (shown previously) (AGT): effective in depleting AGT
- enhancement in the cytotoxic response to alkylating agents (tumor cells): enhancement in the cytotoxic response to chemotherapeutic alkylating agents

Compound: Nc1nc(OCc2ccccc2)c2nc[nH]c2n1 [O^6 -benzylguanine]
- potency as AGT depleter (AGT): more potent
- AGT depletion (shown previously) (AGT): effective in depleting AGT; also recorded: dramatic and rapid depletion of cellular alkyltransferase activity
- AGT activity of the tumors [6]: undetectable
- time to undetectable tumor AGT activity [6]: ≤ 1 h
- time until which tumor AGT remained depleted [6]: 36 h
- survival, BCNU 1 hour after O^6-benzylguanine [7]: significantly increased survival as compared to that of control, BCNU alone, O^6 -benzylguanine alone and O^6 -benzylguanine followed 36 hours later by BCNU
- therapeutic effect, higher doses of O^6-benzylguanine ([8]; with BCNU): greater therapeutic effect
- therapeutic effect of combination regimens vs equitoxic dose of BCNU alone [8]: None of the combination regimens, however, were as effective as an equitoxic dose of BCNU alone
- therapeutic effect, O^6-benzylguanine 1 hour prior to BCNU [8]: significantly greater effect than was seen with BCNU treatment alone
- anti-tumor effect of BCNU after O^6-benzylguanine pretreatment (prostate tumors; prostate cancer): enhanced
- regression in tumor growth (prostate tumors): regression in tumor growth
- sensitivity to chloroethylating and methylating anti-tumor drugs [9]: increase the sensitivity
- sensitivity to chloroethylating and methylating anti-tumor drugs [10]: increase the sensitivity
- sensitivity to chloroethylating and methylating anti-tumor drugs (melanoma cells (M19-mel)): increase the sensitivity
- enhancement in the cytotoxic response to alkylating agents (tumor cells): enhancement in the cytotoxic response to chemotherapeutic alkylating agents
- toxicity of BCNU after O^6-benzylguanine pretreatment [11]: increased the toxicity of BCNU significantly
- therapeutic effect, lower pretreatment dose of O^6-benzylguanine ([12]; with BCNU): significantly lesser therapeutic effect
- therapeutic effect, BCNU 1 hour after O^6-benzylguanine [12]: significantly greater effect than was seen with either the same or a higher dose of BCNU alone
- therapeutic effect, BCNU delayed until 36 hours after O^6-benzylguanine [12]: greatly reduced effect that was not significantly different than that produced by control or BCNU alone
- therapeutic effectiveness of chloroethylating nitrosoureas after pretreatment (human tumor xenografts): dramatic increase in the therapeutic effectiveness of chloroethylating nitrosoureas in vivo

Compound: COc1nc(N)nc2nc[nH]c12 [O^6 -methylguanine]
- IC50 [4]: 350 µM
- IC50 [5]: 120 µM
- potency as AGT depleter (AGT): weak
- enhancement in the cytotoxic response to alkylating agents (tumor cells): enhancement in the cytotoxic response to chemotherapeutic alkylating agents

Compound: CN(N=O)C(=O)N[C@H]1C(O)O[C@H](CO)[C@@H](O)[C@@H]1O (stereo partly drawn) [Streptozotocin, 2-deoxy-2-(3-methyl-3-nitrosoureido)-D-glucopyranose]
- selective destruction of pancreatic beta cells (pancreatic beta cells): selectively destructive to pancreatic beta cells
- effectiveness against pancreatic tumors (pancreatic tumors): effective

Compound: Cn1nnc2c(C(N)=O)ncn2c1=O [Temozolomide, 8-carbamoyl-3-methylimidazo[5,1-d]-1,2,3,5-tetrazin-4-(3H)-one]
- activity against malignant melanomas, brain tumors and mycosis fungoides [13]: active

Compound: O=c1cc[nH]c(=S)[nH]1 [Thiouracil]
- accumulation in active melanin producing cells [14]: accumulates readily in active melanin producing cells such as melanoma cells
